Data reported in patent US10919877B2, “Multifunctional inhibitors of MEK/PI3K and mTOR/MEK/PI3K biological pathways and therapeutic methods using the same” (THE REGENTS OF THE UNIVERSITY OF MICHIGAN, priority 2016, dated 2021).
Values joined by “and” are separate entries in the source; they are usually repeats but may differ in a detail not shown here. Equal values may be shown once. Read-outs that look alike come from different tables or passages of the source.

Columns and labels:
[1] = biological target: T1, PI3Kβ (Homo sapiens, UniProt P42338); experiment: PI3K subtype enzyme inhibition; format: biochemical
T1 construct: purchased Life Technologies (assay run by the vendor)

[2] = biological target: T2, PI3Kγ (Homo sapiens, UniProt P48736); experiment: PI3K subtype enzyme inhibition; format: biochemical
T2 construct: purchased Life Technologies (assay run by the vendor)

[3] = biological target: T3, MEK1 (Homo sapiens, UniProt Q02750); experiment: In vitro MEK1 inhibition assay (Kinase-Glo luminescent kinase assay); format: biochemical; conditions: average of three experiments each conducted in duplicate
T3 construct: purchased Sigma-Aldrich
Method: In Vitro MEK1 Inhibition Assays.
In vitro MEK1 inhibition activity of inhibitor analogs were determined using Kinase-Glo luminescent kinase assay kits from Promega (WI, USA) per manufacturer's instructions. […] Briefly, series of compound dilutions were added in 96-well plates, followed by MEK1, Erk2, and ATP solutions. Kinase reactions were run at 30° C. for 30 minutes. Equal volumes of Kinase-Glo solution were then added, and reactions were incubated at room temperature for a further 30 minutes. Bioluminescence signals were acquired with an Envision multilabel reader from Perkin Elmer. Assays were conducted in triplicate with various inhibitor concentrations each run in duplicate. IC50 data were calculated using GraphPad Prism software (version 5.0, La Jolla, Calif.).

[4] = test system: pAkt in A549 and D54 cells; experiment: Cellular PI3K inhibition, Western blot of pAkt in cultured tumor cells; format: cell-based, human; conditions: 1 hour; for PI3K activity indicated by level of pAKT: cultured A549 cells, Western blot vs DMSO
Method: The in vitro MEK1 and PI3K inhibitory activity of these series of compounds was also assessed in cultured tumor cells (D54, A549). Cellular efficacy of MEK1 and PI3K inhibition by inhibitor compounds was measured by changes in phosphorylation of pErk1/2 and pAkt, respectively. […] Cells were incubated in the presence of indicated compounds for 1 hour and lysates probed with specific antibodies against pAKT and pERK 1/2 and compared with vehicle control (DMSO). A549 (FIG. 2A) and D54 (FIG. 2B) cells were treated with inhibitors at the indicated concentrations for 1 hour and subjected to Western blot analysis.
Western Blot Analysis. Cells were seeded in six-well dishes 24 hours prior to treatment and incubated with the respective inhibitor compound solutions for 1 h. Cells were washed with phosphatebuffered saline (PBS) and lysed with NP-40 lysis buffer (1% NP40, 150 mM NaCl, and 25 mM Tris, pH 8.0) supplemented with protease inhibitors (Complete protease inhibitor cocktail, Roche, Basel, Switzerland) and phosphatase inhibitors (PhosSTOP, Roche, Basel, Switzerland). Concentration of protein was determined using Lowry assays (Bio-Rad, Hercules, Calif.), and equal amounts of whole cell protein lysate were loaded in each lane and resolved using 4-12% gradient Bis-Tris gel (Invitrogen, CA). Proteins were transferred to 0.2 μm nitrocellulose membranes (Invitrogen, CA). Membranes were incubated overnight at 4° C. with primary antibodies after blocking, followed by incubation with appropriate horseradish peroxidase (HRP) conjugated secondary antibody at room temperature for 1 hour. ECL-Plus was used to detect the activity of peroxidase according to the manufacturer's protocol (Amersham Pharmacia, Uppsala, Sweden). Antibodies raised against phospho-p44/42 MAPK (Erk1/2) (Thr202/Tyr204), pAKT(5473), phospho-p70 S6K* and total ERK, AKT antibodies were purchased from Cell Signaling Technology (Beverly, Mass., USA), and anti-β actin (conjugated with HRP) was purchased from Abcam (Cambridge, Mass., USA). Secondary HRP antibodies were purchased from Jackson ImmunoResearch (St. Louis, Mo., USA).

[5] = test system: D54 glioma cells; experiment: Cell viability, AlamarBlue assay; format: cell-based, human; conditions: dose dependence
[6] = test system: Akt phosphorylation; experiment: In vivo PI3K inhibition in flank D54 and A549 tumor bearing mice (Western blot); conditions: D54 and A549 tumors; compound 14: 375 mg/kg oral gavage, 2 h
[7] = test system: pErk1/2 in A549 and D54 cells; experiment: Cellular MEK1 inhibition, Western blot of pErk1/2 in cultured tumor cells; format: cell-based, human; conditions: A549 and D54 cell lines, 1 hour
Method: Western Blot Analysis. […] Cells were washed with phosphatebuffered saline (PBS) and lysed with NP-40 lysis buffer (1% NP40, 150 mM NaCl, and 25 mM Tris, pH 8.0) supplemented with protease inhibitors (Complete protease inhibitor cocktail, Roche, Basel, Switzerland) and phosphatase inhibitors (PhosSTOP, Roche, Basel, Switzerland). […] Proteins were transferred to 0.2 μm nitrocellulose membranes (Invitrogen, CA). Membranes were incubated overnight at 4° C. with primary antibodies after blocking, followed by incubation with appropriate horseradish peroxidase (HRP) conjugated secondary antibody at room temperature for 1 hour. ECL-Plus was used to detect the activity of peroxidase according to the manufacturer's protocol (Amersham Pharmacia, Uppsala, Sweden).

[8] = test system: ERK1/2 phosphorylation; experiment: In vivo MEK1 inhibition in flank D54 and A549 tumor bearing mice (Western blot); conditions: D54 and A549 tumors; compound 14: 375 mg/kg oral gavage, 2 h
Method: Four athymic nude Foxn1nu mice were used to evaluate oncogenic target modulation activity in vivo.
In Vivo Evaluation of Inhibitor Efficacy.
Each injectate contained a total volume of 200 μL of cell suspension in 50% RPMI medium mixed with 50% BD Matrigel basement membrane matrix (Becton, Dickinson and Company, East Rutherford, N.J.). […] Tumor tissues were collected from both vehicle and drug-treated groups and subjected to Western blot analysis as previously described.

[9] = test system: A549 lung tumor cells; experiment: Cell viability, AlamarBlue assay; format: cell-based, human; conditions: dose dependence
[10] = biological target: PI3K (Homo sapiens, UniProt P42336); experiment: In vitro PI3K inhibition assay (Adapta TR-FRET); format: biochemical; conditions: average of three experiments each conducted in duplicate
Method: In Vitro PI3K Inhibition Assays.
Quantitation of PI3K lipid kinase activity was carried out by Life Technologies (Madison, Wis.) with purified enzyme using the fluorescence-based Adapta TR-FRET assay protocol. Assays were conducted in triplicate with various inhibitor concentrations (0.1 nM to 10 μM).

[11] = biological target: T4, PI3Kα (Homo sapiens, UniProt P42336); experiment: PI3K subtype enzyme inhibition; format: biochemical
T4 construct: purchased Life Technologies (assay run by the vendor)

[12] = biological target: T5, PI3Kδ (Homo sapiens, UniProt O00329); experiment: PI3K subtype enzyme inhibition; format: biochemical
T5 construct: purchased Life Technologies (assay run by the vendor)

[13] = biological target: mTOR (Homo sapiens, UniProt P42345); experiment: mTOR enzyme inhibition; format: biochemical
[14] = test system: A375 (melanoma), D54 (glioma), CT26 colorectal cancer, A2058 (melanoma) cell lines; experiment: Concurrent inhibition in tumor cell lines (multifunctional inhibitors); format: cell-based
Source text: The synthesis of another series of single entity, multifunctional inhibitors achieved by covalent linking of structural analogs of a PI3K inhibitor mTOR inhibitor, and an MEK inhibitor is also disclosed.

[15] = read-out: PI3K Subtype Enzyme Inhibition Data IC50 PI3Kα
[16] = table of additional PI3K inhibitors, read-out: PI3Kα IC50
[17] = read-out: PI3K Subtype Enzyme Inhibition Data IC50 PI3Kβ
[18] = table of additional PI3K inhibitors, read-out: PI3Kβ IC50
[19] = read-out: PI3K Subtype Enzyme Inhibition Data IC50 PI3Kγ
[20] = table of additional PI3K inhibitors, read-out: PI3Kγ IC50
[21] = read-out: PI3K Subtype Enzyme Inhibition Data IC50 PI3Kδ
[22] = table of additional PI3K inhibitors, read-out: PI3Kδ IC50

T1 sequence (P42338 whole entry): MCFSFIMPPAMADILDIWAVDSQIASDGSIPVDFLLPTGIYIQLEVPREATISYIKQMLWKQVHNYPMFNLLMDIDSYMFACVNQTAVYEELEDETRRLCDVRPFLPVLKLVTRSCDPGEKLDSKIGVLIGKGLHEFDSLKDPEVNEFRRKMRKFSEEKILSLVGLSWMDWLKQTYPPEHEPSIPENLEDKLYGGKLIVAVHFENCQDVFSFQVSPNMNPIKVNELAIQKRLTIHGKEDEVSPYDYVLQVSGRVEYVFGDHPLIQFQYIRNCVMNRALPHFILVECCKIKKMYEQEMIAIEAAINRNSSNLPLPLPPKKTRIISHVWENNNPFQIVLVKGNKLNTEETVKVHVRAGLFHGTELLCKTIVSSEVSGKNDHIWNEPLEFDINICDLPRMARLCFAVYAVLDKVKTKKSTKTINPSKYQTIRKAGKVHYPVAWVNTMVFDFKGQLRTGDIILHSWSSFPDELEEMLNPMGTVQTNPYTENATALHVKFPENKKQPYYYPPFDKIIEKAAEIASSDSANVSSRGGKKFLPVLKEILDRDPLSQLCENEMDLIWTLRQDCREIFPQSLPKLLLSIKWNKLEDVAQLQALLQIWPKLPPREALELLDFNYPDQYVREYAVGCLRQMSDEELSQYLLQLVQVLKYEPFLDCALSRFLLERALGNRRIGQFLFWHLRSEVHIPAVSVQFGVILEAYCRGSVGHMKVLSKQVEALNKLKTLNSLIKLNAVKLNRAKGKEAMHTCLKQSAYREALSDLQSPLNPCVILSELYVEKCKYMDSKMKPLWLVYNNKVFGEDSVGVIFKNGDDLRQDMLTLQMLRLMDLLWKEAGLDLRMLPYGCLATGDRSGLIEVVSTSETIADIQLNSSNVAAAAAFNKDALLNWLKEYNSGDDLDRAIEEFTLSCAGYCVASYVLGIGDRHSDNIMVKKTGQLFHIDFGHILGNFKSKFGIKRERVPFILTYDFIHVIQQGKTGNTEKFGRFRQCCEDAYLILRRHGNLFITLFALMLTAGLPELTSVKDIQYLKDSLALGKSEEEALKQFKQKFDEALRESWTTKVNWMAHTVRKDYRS
T1 sequence (P27986 whole entry partner): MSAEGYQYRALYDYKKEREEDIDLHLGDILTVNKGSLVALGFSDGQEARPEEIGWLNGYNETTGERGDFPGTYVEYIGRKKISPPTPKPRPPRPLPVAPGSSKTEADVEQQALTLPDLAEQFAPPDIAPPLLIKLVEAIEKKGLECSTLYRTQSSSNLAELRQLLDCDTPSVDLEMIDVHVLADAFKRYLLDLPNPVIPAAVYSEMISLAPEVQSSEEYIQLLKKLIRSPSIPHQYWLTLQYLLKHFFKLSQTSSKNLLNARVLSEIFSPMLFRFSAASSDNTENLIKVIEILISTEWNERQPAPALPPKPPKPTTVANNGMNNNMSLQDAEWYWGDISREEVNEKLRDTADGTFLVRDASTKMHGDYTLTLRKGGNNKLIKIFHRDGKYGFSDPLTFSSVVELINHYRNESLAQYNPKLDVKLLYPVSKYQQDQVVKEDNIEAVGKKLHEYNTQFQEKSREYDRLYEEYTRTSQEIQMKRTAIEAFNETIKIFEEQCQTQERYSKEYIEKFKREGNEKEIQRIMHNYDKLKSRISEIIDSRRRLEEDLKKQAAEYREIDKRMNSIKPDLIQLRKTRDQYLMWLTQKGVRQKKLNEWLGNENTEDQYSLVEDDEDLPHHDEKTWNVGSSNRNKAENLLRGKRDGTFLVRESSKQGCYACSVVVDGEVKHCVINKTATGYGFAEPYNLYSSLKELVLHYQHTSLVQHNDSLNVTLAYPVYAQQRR
T2 sequence (P48736 whole entry): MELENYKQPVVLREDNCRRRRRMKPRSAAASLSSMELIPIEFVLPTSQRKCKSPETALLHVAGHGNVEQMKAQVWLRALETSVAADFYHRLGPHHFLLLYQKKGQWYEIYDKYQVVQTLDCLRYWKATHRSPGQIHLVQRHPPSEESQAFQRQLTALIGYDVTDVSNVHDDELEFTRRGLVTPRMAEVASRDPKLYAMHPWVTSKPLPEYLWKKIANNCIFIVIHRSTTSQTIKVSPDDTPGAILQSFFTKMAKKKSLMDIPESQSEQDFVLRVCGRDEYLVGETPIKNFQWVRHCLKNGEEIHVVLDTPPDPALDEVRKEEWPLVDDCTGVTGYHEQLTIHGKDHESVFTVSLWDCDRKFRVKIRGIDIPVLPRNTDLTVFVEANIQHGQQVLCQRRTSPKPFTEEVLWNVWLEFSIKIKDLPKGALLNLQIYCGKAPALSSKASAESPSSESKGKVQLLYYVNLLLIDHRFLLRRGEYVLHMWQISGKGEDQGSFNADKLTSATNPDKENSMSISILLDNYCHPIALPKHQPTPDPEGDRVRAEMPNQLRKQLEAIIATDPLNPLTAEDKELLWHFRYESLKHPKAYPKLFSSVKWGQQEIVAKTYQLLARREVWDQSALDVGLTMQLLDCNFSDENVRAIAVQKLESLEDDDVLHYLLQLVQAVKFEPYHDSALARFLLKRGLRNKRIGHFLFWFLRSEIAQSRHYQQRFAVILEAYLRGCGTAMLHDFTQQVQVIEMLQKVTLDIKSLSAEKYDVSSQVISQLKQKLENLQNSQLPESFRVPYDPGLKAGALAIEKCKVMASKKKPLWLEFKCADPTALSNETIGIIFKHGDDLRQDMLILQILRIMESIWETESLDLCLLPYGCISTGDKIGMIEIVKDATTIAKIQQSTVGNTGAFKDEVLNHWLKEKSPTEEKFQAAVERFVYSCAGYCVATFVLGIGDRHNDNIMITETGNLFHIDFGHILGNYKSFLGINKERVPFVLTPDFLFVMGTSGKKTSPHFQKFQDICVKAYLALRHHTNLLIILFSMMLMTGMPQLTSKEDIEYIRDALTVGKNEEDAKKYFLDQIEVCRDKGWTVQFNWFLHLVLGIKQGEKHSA
T5 sequence (O00329 whole entry): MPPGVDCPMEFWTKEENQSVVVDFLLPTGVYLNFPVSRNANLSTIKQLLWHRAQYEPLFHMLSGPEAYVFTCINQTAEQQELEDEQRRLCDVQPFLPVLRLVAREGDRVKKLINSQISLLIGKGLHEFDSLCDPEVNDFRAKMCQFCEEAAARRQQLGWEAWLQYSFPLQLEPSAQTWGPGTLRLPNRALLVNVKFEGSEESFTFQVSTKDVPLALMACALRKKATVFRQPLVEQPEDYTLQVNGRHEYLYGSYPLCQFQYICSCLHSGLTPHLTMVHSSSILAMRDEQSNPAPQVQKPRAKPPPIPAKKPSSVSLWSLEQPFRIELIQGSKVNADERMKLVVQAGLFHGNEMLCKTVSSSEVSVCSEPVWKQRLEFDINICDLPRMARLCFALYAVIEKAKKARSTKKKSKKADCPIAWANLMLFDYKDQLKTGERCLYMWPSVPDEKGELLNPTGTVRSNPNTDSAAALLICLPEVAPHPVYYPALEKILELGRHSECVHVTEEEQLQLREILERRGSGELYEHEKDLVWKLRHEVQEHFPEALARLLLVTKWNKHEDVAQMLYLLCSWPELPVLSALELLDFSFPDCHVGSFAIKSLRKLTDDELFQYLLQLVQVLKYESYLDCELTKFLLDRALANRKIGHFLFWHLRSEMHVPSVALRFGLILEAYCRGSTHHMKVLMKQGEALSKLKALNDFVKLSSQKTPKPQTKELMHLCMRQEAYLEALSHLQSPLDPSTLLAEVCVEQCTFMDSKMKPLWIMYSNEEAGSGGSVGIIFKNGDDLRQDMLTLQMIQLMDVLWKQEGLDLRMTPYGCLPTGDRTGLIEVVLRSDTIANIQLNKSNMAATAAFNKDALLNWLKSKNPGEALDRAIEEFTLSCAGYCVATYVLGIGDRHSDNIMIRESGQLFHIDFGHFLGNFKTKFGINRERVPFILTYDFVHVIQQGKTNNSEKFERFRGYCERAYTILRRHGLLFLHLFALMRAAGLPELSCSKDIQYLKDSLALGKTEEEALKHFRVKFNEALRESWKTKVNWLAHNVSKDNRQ
T5 sequence (P27986 whole entry partner): as the sequence (P27986 whole entry partner) above
T4 sequence (P42336 whole entry): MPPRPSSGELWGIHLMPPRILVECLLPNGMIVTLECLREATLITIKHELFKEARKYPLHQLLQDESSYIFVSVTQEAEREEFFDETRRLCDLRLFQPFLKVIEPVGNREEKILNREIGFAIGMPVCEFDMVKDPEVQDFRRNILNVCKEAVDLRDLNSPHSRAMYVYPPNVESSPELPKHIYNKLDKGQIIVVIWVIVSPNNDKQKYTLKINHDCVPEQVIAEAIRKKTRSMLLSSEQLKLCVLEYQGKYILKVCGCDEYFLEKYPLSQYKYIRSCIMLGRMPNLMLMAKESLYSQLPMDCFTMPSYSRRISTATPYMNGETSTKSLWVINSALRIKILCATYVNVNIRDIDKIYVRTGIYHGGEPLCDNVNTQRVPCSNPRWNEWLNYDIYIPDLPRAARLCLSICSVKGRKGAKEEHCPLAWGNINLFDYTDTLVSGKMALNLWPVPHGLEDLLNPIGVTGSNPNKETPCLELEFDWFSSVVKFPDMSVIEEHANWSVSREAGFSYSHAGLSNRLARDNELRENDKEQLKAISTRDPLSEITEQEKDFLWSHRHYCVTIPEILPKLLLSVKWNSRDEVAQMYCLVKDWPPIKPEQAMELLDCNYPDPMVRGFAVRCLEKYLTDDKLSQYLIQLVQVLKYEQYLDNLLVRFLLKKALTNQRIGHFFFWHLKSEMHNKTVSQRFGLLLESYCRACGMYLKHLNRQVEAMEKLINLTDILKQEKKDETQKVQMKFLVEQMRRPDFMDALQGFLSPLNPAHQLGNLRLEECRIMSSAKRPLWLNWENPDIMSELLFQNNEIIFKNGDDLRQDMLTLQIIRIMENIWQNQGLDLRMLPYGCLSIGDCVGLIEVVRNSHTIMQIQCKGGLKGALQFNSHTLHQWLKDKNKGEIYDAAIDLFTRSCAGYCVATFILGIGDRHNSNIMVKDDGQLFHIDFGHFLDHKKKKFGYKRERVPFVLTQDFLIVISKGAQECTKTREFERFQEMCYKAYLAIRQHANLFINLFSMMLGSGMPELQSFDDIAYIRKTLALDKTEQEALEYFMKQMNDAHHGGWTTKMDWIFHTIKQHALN
T4 sequence (P27986 whole entry partner): as the sequence (P27986 whole entry partner) above

SMILES | IC50 [11, 15] | IC50 [11, 16] | IC50 [1, 17] | IC50 [1, 18] | IC50 [2, 19] | IC50 [2, 20] | IC50 [12, 21] | IC50 [12, 22] | also measured
FC(F)c1nc2ccccc2n1-c1nc(N2CCNCC2)nc(N2CCOCC2)n1 |  |  |  |  |  |  |  |  | IC50 ([1]; mean ± SEM, read-out: PI3K Subtype Inhibition Activity PI3Kβ): 1090 ± 168 nM; IC50 ([2]; mean ± SEM, read-out: PI3K Subtype Inhibition Activity PI3Kγ): 1870 ± 283 nM
O=C(CNCCONC(=O)c1ccc(F)c(F)c1Nc1ccc(I)cc1F)NCCCCCC(=O)N1CCN(c2nc(N3CCOCC3)nc(-n3c(C(F)F)nc4ccccc43)n2)CC1 [Compound 7, N-(2-((2-((6-(4-(4-(2-(Difluoromethyl)-1H-benzo[d]imidazol-1-yl)-6-morpholino-1,3,5-triazin-2-yl)piperazin-1-yl)-6-oxohexyl)amino)-2-oxoethyl)amino)ethoxy)-3,4-difluoro-2-((2-fluoro-4-iodophenyl)amino)benzamide] |  |  |  |  |  |  |  |  | IC50 [3]: 0.5 ± 1.2 nM; PI3K activity indicated by level of pAKT [4]: high potency in inhibiting PI3K activity
O=C(NOCCNCCCCCC(=O)N1CCN(c2nc(N3CCOCC3)nc(-n3c(C(F)F)nc4ccccc43)n2)CC1)c1ccc(F)c(F)c1Nc1ccc(I)cc1F [Compound 9, N-(2-((6-(4-(4-(2-(Difluoromethyl)-1H-benzo[d]imidazol-1-yl)-6-morpholino-1,3,5-triazin-2-yl)piperazin-1-yl)-6-oxohexyl)amino)ethoxy)-3,4-difluoro-2-((2-fluoro-4-iodophenyl)amino)benzamide] |  |  |  |  |  |  |  |  | cell viability [5]: as effective as the combination of ZSTK474 and PD0325901; phosphorylation of Akt (PI3K activity) in excised tumor tissue [6]: modulation of ERK1/2 and pAkt levels was also achieved; MEK inhibition in cells [7]: most pronounced; phosphorylation of ERK1/2 (MEK1 activity) in excised tumor tissue [8]: modulation of ERK1/2 and pAkt levels was also achieved; cell viability [9]: as effective as the combination of ZSTK474 and PD0325901; PI3K inhibition in cells ([4]; A549 and D54 cell lines, Western blot): most pronounced; PI3K activity indicated by level of pAKT [4]: high potency in inhibiting PI3K activity
O=C(NOCCNCCCCS(=O)(=O)N1CCN(c2nc(N3CCOCC3)nc(-n3c(C(F)F)nc4ccccc43)n2)CC1)c1ccc(F)c(F)c1Nc1ccc(I)cc1F [Compound 11] |  |  |  |  |  |  |  |  | IC50 [10]: 191 to 341 nM and 285 nM; IC50 [3]: 56.7 ± 1.3 nM
CNCCNc1nc(N2CCOCC2)nc(-n2c(C(F)F)nc3ccccc32)n1 [ST-5-02] | 248 ± 24 nM | 248 ± 24 nM | 2900 ± 375 nM | 2900 ± 375 nM | 681 ± 90 nM | 681 ± 90 nM | 135 ± 19 nM | 135 ± 19 nM | 
CC(=O)N1CCN(c2nc(N3CCOCC3)nc(-n3c(C(F)F)nc4ccccc43)n2)CC1 [ST-5-03] |  |  | 14.3 ± 2.5 nM | 14.3 ± 2.5 nM | 21 ± 1 nM | 21 ± 1 nM |  |  | 
CN(CCOCCOCCONC(=O)c1ccc(F)c(F)c1Nc1ccc(I)cc1F)CC[N+](C)(C)CCOCCOCCC(=O)N1CCN(c2nc(N3CCOCC3)nc(-n3c(C(F)F)nc4ccccc43)n2)CC1 [ST-5-05] | 39 ± 2 nM |  | 2520 ± 557 nM |  | 2590 ± 660 nM |  | 56 ± 13 nM |  | 
CNC(=O)CCNc1nc(N2CCOCC2)nc(-n2c(C(F)F)nc3ccccc32)n1 [ST-5-21] | 20 ± 0.4 nM | 20 ± 0.4 nM | 431 ± 83 nM | 431 ± 83 nM | 67 ± 2.8 nM | 67 ± 2.8 nM | 26 ± 4.9 nM | 26 ± 4.9 nM | 
CC(=O)NCCNc1nc(N2CCOCC2)nc(-n2c(C(F)F)nc3ccccc32)n1 [ST-5-22] | 16.6 ± 1.4 nM |  | 199 ± 12 nM |  | 54 ± 1.5 nM |  | 9.5 ± 2.4 nM |  | 
O=C(O)CCNc1nc(N2CCOCC2)nc(-n2c(C(F)F)nc3ccccc32)n1 [ST-5-25] | 12.4 ± 0.7 nM | 12.4 ± 0.7 nM | 787 ± 106 nM | 787 ± 106 nM | 22.3 ± 0.7 nM | 22.3 ± 0.7 nM | 60 ± 3.4 nM | 60 ± 3.4 nM | 
O=S(=O)(Nc1cc(-c2ccc3ncc(N4CCNCC4)nc3c2)cnc1Cl)c1ccc(F)cc1 [ST-5-27] |  |  |  |  |  |  |  |  | IC50 ([11]; read-out: PI3Kα IC50): < 0.495 nM; IC50 [13]: 5.97 ± 0.27 nM; IC50 ([1]; read-out: PI3Kβ IC50): 477 ± 0.92 nM; IC50 ([2]; read-out: PI3Kγ IC50): 514 ± 0.23 nM; IC50 ([12]; read-out: PI3Kδ IC50): 0.83 ± 0.06 nM
CC(=O)N1CCN(c2cnc3ccc(-c4cnc(Cl)c(NS(=O)(=O)c5ccc(F)cc5)c4)cc3n2)CC1 [ST-5-28] |  |  |  |  |  |  |  |  | IC50 ([11]; read-out: PI3Kα IC50): < 0.495 nM; IC50 [13]: 3.13 ± 0.14 nM; IC50 ([1]; read-out: PI3Kβ IC50): 5.36 ± 1.1 nM; IC50 ([2]; read-out: PI3Kγ IC50): 0.71 ± 0.2 nM; IC50 ([12]; read-out: PI3Kδ IC50): < 0.495 nM
NOCCOCCOCCOCCC(=O)N1CCN(c2cnc3ccc(-c4cnc(Cl)c(NS(=O)(=O)c5ccc(F)cc5)c4)cc3n2)CC1 [ST-5-29] |  |  |  |  |  |  |  |  | IC50 ([11]; read-out: PI3Kα IC50): < 0.495 nM; IC50 [13]: 6.77 ± 0.43 nM; IC50 ([1]; read-out: PI3Kβ IC50): 1.33 ± 0.59 nM; IC50 ([2]; read-out: PI3Kγ IC50): 30.2 ± 0.14 nM
NOCCOCCOCCOCCC(=O)N1CCN(c2nc(N3CCOCC3)nc(-n3c(C(F)F)nc4ccccc43)n2)CC1 [ST-167] |  |  | 214 ± 49 nM | 214 ± 49 nM | 140 ± 6.6 nM | 140 ± 6.6 nM |  |  | 
NCCNc1nc(N2CCOCC2)nc(-n2c(C(F)F)nc3ccccc32)n1 [ST-177] | 292 ± 31 nM | 292 ± 31 nM | 2120 ± 444 nM | 2120 ± 444 nM | 771 ± 63 nM | 771 ± 63 nM | 291 ± 32 nM | 291 ± 32 nM | 
COCCNc1nc(N2CCOCC2)nc(-n2c(C(F)F)nc3ccccc32)n1 [ST-178] | 20 ± 3 nM | 20 ± 3 nM | 208 ± 15 nM | 208 ± 15 nM | 64 ± 5 nM | 64 ± 5 nM | 17 ± 1 nM | 17 ± 1 nM | 
CN(CCOCCOCCONC(=O)c1ccc(F)c(F)c1Nc1ccc(I)cc1F)CCN(C)CCOCCOCCC(=O)N1CCN(c2nc(N3CCOCC3)nc(-n3c(C(F)F)nc4ccccc43)n2)CC1 [ST-180] | 39 ± 9 nM |  | 2210 ± 425 nM |  | 717 ± 136 nM |  | 52 ± 1.4 nM |  | Concurrent inhibition in tumor cell lines [14]: Concurrent inhibition was demonstrated
O=C(NOCCOCCOCCOCCC(=O)N1CCN(c2cnc3ccc(-c4cnc(Cl)c(NS(=O)(=O)c5ccc(F)cc5)c4)cc3n2)CC1)c1ccc(F)c(F)c1Nc1ccc(I)cc1F [ST-182] |  |  |  |  |  |  |  |  | IC50 ([11]; read-out: PI3Kα IC50): 2 ± 0.3 nM; IC50 [13]: 53.1 ± 2.5 nM; IC50 ([1]; read-out: PI3Kβ IC50): 467 ± 44 nM; IC50 ([2]; read-out: PI3Kγ IC50): 34.1 ± 3 nM; IC50 ([12]; read-out: PI3Kδ IC50): 4.22 ± 0.64 nM
OCCNc1nc(N2CCOCC2)nc(-n2c(C(F)F)nc3ccccc32)n1 [ST-187] | 9.9 ± 1.2 nM | 9.9 ± 1.2 nM | 71 ± 8 nM | 71 ± 8 nM | 54 ± 1 nM | 54 ± 1 nM | 8.1 ± 1.7 nM | 8.1 ± 1.7 nM | 
